Consider seven molecules from ChEMBL document CHEMBL1136488, “Antibacterial and antiproliferative activity of cationic fullerene derivatives” (2003).

SMILES strings stand for the structures. Converted amounts (≈) assume the structure as drawn.

Test [1] concerns Enterococcus faecalis. Put plainly: Antibacterial activity against vancomycin resistant Enterococcus faecalis NCTC 12201 (VRE). The class given is functional.
Test [2] deals with Staphylococcus epidermidis. Kind of test: Antibacterial activity against Staphylococcus epidermidis ATCC 14990. The class given is functional.
For test [3], the system named is Staphylococcus aureus. Put plainly: Antibacterial activity against […] resistant Staphylococcus aureus M126 (MRSA). The test is classed as functional.
The subject of test [4] is Staphylococcus aureus. Kind of test: Antibacterial activity against […] resistant Staphylococcus aureus M133 (MRSA). The class given is functional.
Test [5] has as its system Enterococcus faecalis. Put plainly: Antibacterial activity against Enterococcus faecalis W-73. The test is classed as functional.
The subject of a further test is Enterococcus faecium. Kind of test: Antibacterial activity against vancomycin resistant Enterococcus faecium vanA (VRE). The class given is functional.
A further test relates to Enterococcus hirae. Kind of test: Antibacterial activity against Enterococcus hirae ATCC 8043. The test is classed as functional.
Test [6] has as its system Staphylococcus aureus. Kind of test: Antibacterial activity against Staphylococcus aureus 209P JC-1. The class given is functional.
Test [7] concerns Enterococcus faecalis. Kind of test: Antibacterial activity against Enterococcus faecalis W-73.

As a reminder, the MIC is the lowest concentration found to suppress growth. On to `C[N+]1(C)CC23c4c5c6c7c8c9c%10c%11c%12c%13c%14c%15c%16c%17c%18c%19c%20c(c2c2c4c4c6c6c8c%10c8c%12c%10c%14c(c%15%19)c%12c%20c2c2c4c6c8c%10c%122)C%18C2c4c6c8c%10c(c4-%17)C%16C%13C%114C[N+](C)(C)CC%104C=9C8C7C5=C6C23C1.[I-].[I-]` (centres undefined), for which the MIC turned out to be 3.12 µg/mL in the test with Enterococcus faecalis [1]; 3.12 µg/mL in test [2]; 1.56 µg/mL with Staphylococcus aureus [3]; 1.56 µg/mL against Staphylococcus aureus [4]; 6.25 µg/mL in the test with Enterococcus faecalis [5]; 6.25 µg/mL against Enterococcus faecium. For the same molecule, the MIC in the test with Enterococcus hirae amounted to 6.25 µg/mL; in the test with Staphylococcus aureus [6], 0.78 µg/mL.

Regarding `CCCCC1C23C4=c5c6c7c8c9c%10c%11c%12c%13c%14c%15c%16c%17c%18c%19c%20c%21c%22c%23c(c5c5c6c6c8c%11c8c%11c%12c%15c%12c(c%20%16)c%21c%15c%23c5c(c68)c%15c%12%11)C2(C[N+]1(C)C)C%22C%19c1c-%18c2c5c(c13)C4C7C9=C5C1(C2C%17%14)C(CCCC)[N+](C)(C)CC%10%131.[I-].[I-]` (centres undefined), the MIC was 6.25 µg/mL in the test with Enterococcus faecalis [1]; 6.25 µg/mL in [2]; 6.25 µg/mL in the test with Staphylococcus aureus [3]; 6.25 µg/mL with Staphylococcus aureus [4]; 6.25 µg/mL in the test with Enterococcus faecalis [5]; 12.5 µg/mL against Enterococcus faecium. Moreover, the MIC against Enterococcus hirae and against Staphylococcus aureus [6] was 6.25 µg/mL throughout.

As for `C[N+]1(C)CC23C4=C5C6=C7C8C9=c%10c%11c%12c%13c%14c%15c%16c%17c%18c%19c%20c%21c%22c%23c(c4c4c2c2c%24c%25c(c%10c(c%11%15)c%10c%16c%19c(c%25%10)c%10c%20c%23c4c%24%10)C2C9C73C1)C1C%22=C2c3c(c6c(c-%13c3C(C%14%17)C23C[N+](C)(C)CC%21%183)C%128)C51.[I-].[I-]` (centres undefined), the MIC against Enterococcus faecalis [1] was determined as 12.5 µg/mL; in test [2], 6.25 µg/mL; against Staphylococcus aureus [3], 3.12 µg/mL; in the test on Staphylococcus aureus [4], 0.78 µg/mL; against Enterococcus faecalis [5], 12.5 µg/mL; against Enterococcus faecium, 12.5 µg/mL. For the same molecule, the MIC was determined as 12.5 µg/mL against Enterococcus hirae and 1.56 µg/mL against Staphylococcus aureus [6].

Consider `CCCCCCCCCC1C23C4=C5c6c7c8c9c(c%10c%11c%12c%13c%14c%15c%16c%17c%18c%19c%20c%21c%22c%23c%24c(c6c6c8c8c%25c9c%11c%14c%25c9c%15c%18c%11c(c%23%19)c%24c6c8c%119)C5C%22c5c4c4c6c(c5-%21)C(C%20%17)C5(C6=C%12C%10C42)C(CCCCCCCCC)[N+](C)(C)CC%13%165)C73C[N+]1(C)C.[I-].[I-]` (centres undefined), for which the MIC (against Enterococcus faecalis [1]; in test [2]; against Enterococcus faecalis [5]; against Enterococcus faecium; with Enterococcus hirae; in the test on Staphylococcus aureus [6]) was > 100 µg/mL in each case.

As for `C[N+]1(C)CC23c4c5c6c7c8c9c%10c%11c%12c%13c%14c%15c%16c%17c%18c%19c%20c%21c(c2c2c4c4c6c9c6c4c4c2c%21c2c%19c(c%18%14)c9c%13c%10c6c9c24)C2=C4c6c(c-%16c9c%10c6C(C5C7=C%10C5(C[N+](C)(C)CC8%115)C9C%15%12)C43C1)C%17C2%20.[I-].[I-]` (centres undefined), the MIC came out at 6.25 µg/mL in the test with Enterococcus faecalis [1]; 3.12 µg/mL in test [2]; 3.12 µg/mL with Staphylococcus aureus [3]; 3.12 µg/mL in the test with Staphylococcus aureus [4]; 6.25 µg/mL in the test on Enterococcus faecalis [5]; 6.25 µg/mL against Enterococcus faecium. For the same molecule, the MIC against Enterococcus hirae was 6.25 µg/mL; in the test with Staphylococcus aureus [6] it was 3.12 µg/mL.

With `CCCCCCC1C23C4=c5c6c7c8c9c%10c%11c%12c%13c%14c%15c%16c%17c%18c%19c%20c%21c%22c%23c(c5c5c6c6c8c%11c8c%11c%12c%15c%12c(c%20%16)c%21c%15c%23c5c(c68)c%15c%12%11)C2(C[N+]1(C)C)C%22C%19c1c-%18c2c5c(c13)C4C7C9=C5C1(C2C%17%14)C(CCCCCC)[N+](C)(C)CC%10%131.[I-].[I-]` (centres undefined), the MIC in the test with Enterococcus faecalis [1] was 25 µg/mL; in test [2] it was 12.5 µg/mL; in the test on Staphylococcus aureus [3], 12.5 µg/mL; in the test with Staphylococcus aureus [4] it was 12.5 µg/mL; against Enterococcus faecium, 12.5 µg/mL; against Enterococcus hirae, 25 µg/mL. Moreover, the MIC amounted to 50 µg/mL in the test on Enterococcus faecalis [7] and 6.25 µg/mL in the test with Staphylococcus aureus [6].

For `CN[C@H](CC(C)C)C(=O)N[C@H]1C(=O)N[C@@H](CC(N)=O)C(=O)N[C@H]2C(=O)N[C@H]3C(=O)N[C@H](C(=O)N[C@H](C(=O)O)c4cc(O)cc(O)c4-c4cc3ccc4O)[C@H](O)c3ccc(c(Cl)c3)Oc3cc2cc(c3O[C@@H]2O[C@H](CO)[C@@H](O)[C@H](O)[C@H]2O[C@H]2C[C@](C)(N)[C@H](O)[C@H](C)O2)Oc2ccc(cc2Cl)[C@H]1O` [VANCOMYCIN], the MIC in the test on Enterococcus faecalis [1] is > 100 µg/mL; in test [2], 3.12 µg/mL (≈ 2.15 µM); in the test on Staphylococcus aureus [3] it was 1.56 µg/mL (≈ 1.08 µM); against Staphylococcus aureus [4], 1.56 µg/mL (≈ 1.08 µM); in the test on Enterococcus faecalis [5], 3.12 µg/mL (≈ 2.15 µM); against Enterococcus faecium, > 100 µg/mL. Further, the MIC in the test on Enterococcus hirae was determined as 3.12 µg/mL (≈ 2.15 µM); with Staphylococcus aureus [6], 1.56 µg/mL (≈ 1.08 µM).
